Nine molecules from patent US20260167637A1, “NLRP3 INFLAMMASOME INHIBITOR AND USE THEREOF” (TransThera Sciences (Nanjing), Inc., priority 2022, published 2026) can be followed below.

One may read the IC50 as the midpoint of a concentration-inhibition curve. As usually defined, the clearance is a measure of how efficiently the substance is removed, as volume per time. In general, bioavailability refers to the share of a dose that reaches the circulation, judged against a reference dose that is usually intravenous. By microsomal CLint is commonly meant the capacity of the preparation to metabolise the compound, expressed as a volume cleared per time. Lower therefore signals slow turnover.

SMILES strings stand for the structures. Read-outs that look alike come from different tables or passages of the source.

The target of one data set is T1, THP-1 cell NLRP3 (Homo sapiens, UniProt Q96P20).
T1 construct: endogenous in cells; host or cells: THP-1 cells, PMA-differentiated, stimulated with LPS and nigericin
Put plainly: Inhibitory activity against cell NLRP3 inflammasomes in THP-1 cells (LPS + nigericin, ELISA of supernatant). It is filed as cell-based. The settings on record: PMA-differentiated THP-1 cells, LPS 500 ng/mL 3 h, compound 1 h, nigericin 30 min; human IL-10 (so in the source) in supernatant by ELISA. The procedure:
Experimental Example 1: Assay for Inhibitory Activity of Compounds Disclosed Herein Against Cell NLRP3 Inflammasomes
Test substances: The compounds of the present disclosure, prepared according to the methods described in the examples.
THP-1 is an immortalized human […] cell line.
Instrument: microplate reader (made by PE)
Assay Method: 1. THP-1 cells were cultured in 1640 complete medium (500 mL of 1640+56 mL of FBS+560 μL of 1000×P/S+2 μL of mercaptoethanol), and cells at passages 3-20 were used.
2. Culture plate coating: 100 μL of polylysine solution was added to a 96-well cell culture plate. After 30 min of incubation at 37° C., the solution was discarded, and the plate was washed with PBS twice for later use.
3. Induction of THP-1 differentiation: THP-1 cells were resuspended in an appropriate amount of complete medium containing 10 ng/mL PMA to form a cell suspension with a density of 5×10^5 cells/mL. The suspension was added to the 96-well plate at 100 μL/well, and the plate was incubated overnight in a 37° C. carbon dioxide cell incubator for 16 h.
4. Stimulation of THP-1: • a. Serum-free THP-1 culture medium containing LPS was added, with the final concentration being 500 ng/mL. The plate was incubated in a 37° C. carbon dioxide cell incubator for 3 h. • b. Mother liquors of the compounds to be tested with gradient concentrations were prepared with DMSO, added to the cells, and well mixed. Dilution was finally performed in a 1:1000 ratio. The plate was incubated in a 37° C. carbon dioxide cell incubator for 1 h. • c. Nigericin was added to each well, with the final concentration being […]. The plate was incubated in a carbon dioxide cell incubator at 37° C. for 30 min. • d. The medium in the wells was transferred to a new culture plate, and after 5 min of centrifugation at 3000 rpm, the supernatant was transferred to a new 96-well plate. • e. The content of human […] in the collected cell culture supernatant samples was determined with a commercial ELISA kit by following the instructions.
(ELISA stands for enzyme-linked immunosorbent assay.)

The nature of data set [1]: Pharmacokinetic study in mice. It is filed as in vivo, female C57BL/6J mice. The settings on record: female, C57BL/6J, mouse, plasma; for clearance: read-out: Cl—obs iv (clearance rate) (converted); for Vd: read-out: Vss iv (distribution volume); for bioavailability: po 10 mg/kg vs iv 5 mg/kg, read-out: F% (absolute bioavailability); for Tmax: median, read-out: Tmax po (time to peak plasma concentration); for Cmax: read-out: Cmax po (peak concentration). The procedure:
The compounds were prepared into solutions using a mixed vehicle composed of 5% dimethyl sulfoxide, 20% (30% solutol), and 75% normal saline. The compound solutions were intragastrically administered to female C57BL/6J mice at a dose of 10 mg/kg, and the blood collection time points were: 15 min, 30 min, 1 h, 2 h, 4 h, 6 h, 8 h, and 24 h.
The compounds were prepared into solutions using a mixed vehicle composed of 5% dimethyl sulfoxide, 20% (30% solutol), and 75% normal saline. The compound solutions were intravenously injected into female C57BL/6J mice at a dose of 5 mg/kg, and the blood collection time points were: 5 min, 15 min, 30 min, 1 h, 2 h, 4 h, 6 h, 8 h, and 24 h.
The samples to be tested were taken out from a −80° C. freezer, naturally thawed at room temperature, and then vortexed for 5 min.
Plasma samples of 10 μL from different individuals were accurately pipetted into 1.5 mL centrifuge tubes.
900 μL of a 100 ng/mL internal standard working solution (a solution of tolbutamide in acetonitrile) was added, and the mixture was well mixed.
After 5 min of vortexing, centrifugation was performed at 12,000 rpm for 5 min.
50 μL of the supernatant was accurately pipetted into a 96-well plate to which water was added in advance at 150 μL/well.
After 5 min of vortexing, LC-MS/MS analysis was performed.
The results of the test substance concentrations were output by Analyst 1.6.3 of AB Sciex.
Parameters such as mean, standard deviation, and coefficient of variation (excluding those output directly by Analyst 1.6.3) were calculated using Microsoft Excel. PK parameters were calculated using WinNonlin Phenoix 8.2 software NCA (Tmax was a median).

Data set [2] is described as follows: Stability in canine liver microsomes. It counts as in vitro ADME. As to conditions: dog, canine liver microsomes 0.5 mg protein/mL, 1 μM test substance, β-NADPH 1 mM, 37° C.; for half-life at 1 μM: read-out: Canine t1/2. The procedure:
(§1) Experimental Example 2: Evaluation of Stability of Compounds Disclosed Herein in Liver Microsomes
(§2) Composition of experimental incubation system:
(§3) An appropriate amount of the compound was precisely weighed out and dissolved in DMSO to prepare a 10.0 mM stock solution. The 10.0 mM stock solution was diluted with DMSO to 1.0 mM, and then diluted with phosphate buffer (containing 3 mM MgCl2) to prepare a 10 μM test substance working solution for later use (DMSO content in the reaction system: 0.1%).
(§4) An appropriate amount of β-NADPH was precisely weighed out and then prepared into a 5 mM β-NADPH working solution using phosphate buffer (containing 3 mM MgCl2) for later use.
(§5) (1) The liver microsomes (20 mg protein/mL) were taken out from a −80° C. freezer and pre-incubated on a 37° C. water bath thermostatic oscillator for 3 min to thaw for later use.
(§6) (2) A mixed solution of the incubation system (without β-NADPH) was prepared according to “composition of experimental incubation system” described above, and pre-incubated on a 37° C. water bath thermostatic oscillator for 2 min.
(§7) (3) Control group (without β-NADPH): 10 μL of phosphate buffer (containing 3 mM MgCl2) and 40 μL of the mixed solution of the incubation system in step (2) were taken and mixed, and the mixture was vortexed for 30 s and mixed well, resulting in a total reaction volume of 50 μL; the sample was duplicated. The mixture was placed on a 37° C. water bath thermostatic oscillator for incubation, and timing was started, with termination time points set at 0 min and 60 min.
(§8) (4) Sample group: 10 μL of the β-NADPH solution (5 mM) and 40 μL of the mixed solution in step (2) were taken and mixed, resulting in a total reaction volume of 50 μL; the mixture was vortexed for 30 s and mixed well; the sample was duplicated. The mixture was placed on a 37° C. water bath thermostatic oscillator for incubation, and timing was started, with termination time points set at 0 min, 5 min, 10 min, 20 min, 30 min, and 60 min.
(§9) (5) The mixture was vortexed for 5 min and then centrifuged at 4000 rpm for 10 min.
(§10) (6) 50 μL of the supernatant was taken and added to 150 μL of water, and the resulting mixture was vortexed and mixed well before LC/MS/MS analysis.
(§11) The half-life (t1/2) and clearance rate (CL) were calculated using the following first-order kinetic formula
(§12) Notes: k denotes the slope of the logarithm of the remaining amount of a compound vs. time, and Vd denotes apparent volume of distribution.
(In general: Microsomes from liver hold many membrane-bound enzymes, among them those of drug oxidation.)

Data set [3] can be described thus: Stability in rat liver microsomes. It is filed as in vitro ADME. As to conditions: rat liver microsomes 0.5 mg protein/mL, 1 μM test substance, β-NADPH 1 mM, 37° C.; for half-life at 1 μM: read-out: Rat t1/2. The protocol:
as §1, §2, §3, §4, §5, §6, §7, §8, §9, §10, §11, §12

Setting [4] is: iv 5 mg/kg, read-out: AUClast iv (0-24 h).
Setting [5] is: iv 5 mg/kg, read-out: tz1/2 iv (terminal half-life) (converted).
Where [6] appears, read: po 10 mg/kg, read-out: AUClast po (0-24 h).
Setting [7] is: po 10 mg/kg, read-out: tz1/2 po (terminal half-life) (converted).

T1 sequence (Q96P20 whole entry): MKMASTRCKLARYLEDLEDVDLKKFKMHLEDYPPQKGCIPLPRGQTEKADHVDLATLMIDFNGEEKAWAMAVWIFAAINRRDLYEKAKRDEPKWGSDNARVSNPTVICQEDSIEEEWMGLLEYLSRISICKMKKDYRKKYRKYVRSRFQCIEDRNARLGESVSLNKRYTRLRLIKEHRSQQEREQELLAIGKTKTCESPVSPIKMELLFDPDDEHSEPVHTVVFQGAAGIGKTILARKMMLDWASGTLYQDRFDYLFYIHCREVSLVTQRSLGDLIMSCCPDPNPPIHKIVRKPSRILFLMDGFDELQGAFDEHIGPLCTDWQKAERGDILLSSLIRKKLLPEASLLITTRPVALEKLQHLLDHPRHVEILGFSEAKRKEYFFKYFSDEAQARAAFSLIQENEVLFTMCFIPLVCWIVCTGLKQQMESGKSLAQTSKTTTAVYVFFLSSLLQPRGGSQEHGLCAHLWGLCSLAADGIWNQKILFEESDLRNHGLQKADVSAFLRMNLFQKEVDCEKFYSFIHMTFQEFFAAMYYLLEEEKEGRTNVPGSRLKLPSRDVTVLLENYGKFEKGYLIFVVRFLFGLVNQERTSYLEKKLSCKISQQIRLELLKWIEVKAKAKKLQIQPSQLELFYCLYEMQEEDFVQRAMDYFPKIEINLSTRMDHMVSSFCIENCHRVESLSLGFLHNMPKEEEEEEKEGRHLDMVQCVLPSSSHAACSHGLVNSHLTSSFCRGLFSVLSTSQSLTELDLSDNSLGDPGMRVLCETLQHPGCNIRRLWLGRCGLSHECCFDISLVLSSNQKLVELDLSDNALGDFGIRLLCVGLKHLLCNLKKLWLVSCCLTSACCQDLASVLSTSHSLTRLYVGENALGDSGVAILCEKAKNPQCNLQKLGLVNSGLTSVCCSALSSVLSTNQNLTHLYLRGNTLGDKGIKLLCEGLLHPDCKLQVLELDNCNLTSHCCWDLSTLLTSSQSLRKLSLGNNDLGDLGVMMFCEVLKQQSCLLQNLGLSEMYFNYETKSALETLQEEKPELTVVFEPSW

Regarding `CC#Cc1ccc(-c2nnc(N[C@@H]3CCCN(CCO)C3)cc2C2CC2)c(O)c1` [Compound 44, (R)-2-(4-cyclopropyl-6-((1-(2-hydroxyethyl)piperidin-3-yl)amino)pyridazin-3-yl)-5-(prop-1-yn-1-yl)phenol], the 50% inhibitory concentration (IC50) at THP-1 cell NLRP3 was 3.6 nM. The AUC(0-t) in data set [1] (setting [4]) is 8960 ng·h/mL. Also, in data set [1] (iv 5 mg/kg), the clearance is 9.18 mL/min/kg and the Vd is 2.76 L/kg. In data set [1] (setting [5]), the half-life was 237 min. For the same molecule, the bioavailability in data set [1] is 69.1%. Besides, in data set [1] (po 10 mg/kg), the Tmax was found to be 0.5 h and the Cmax stood at 1710 ng/mL. Besides, the AUC(0-t) in data set [1] (setting [6]) is 12400 ng·h/mL. Besides, in data set [1] (setting [7]), the half-life is 243 min.
Consider `C#Cc1ccc(-c2nnc(N[C@@H]3CCCN(C)C3)cc2C2CCC2)c(O)c1` [Compound 82, (R)-5-ethynyl-2-(4-cyclobutyl-6-((1-methylpiperidin-3-yl)amino)pyridazin-3-yl)phenol], for which, at THP-1 cell NLRP3, the IC50 was 1.1 nM. Besides, in data set [2], the intrinsic metabolic clearance (microsomal CLint) at 1 μM was determined as 8 µL/min/mg and the half-life at 1 μM was 173 min. In addition, in data set [3], the microsomal CLint at 1 μM stood at 10.4 µL/min/mg and the half-life at 1 μM came out at 133 min.
Consider `C#Cc1ccc(-c2nnc(N[C@@H]3CCCC[C@H]3O)cc2C)c(O)c1` [Compound 83, 5-ethynyl-2-(6-(((1R,2R)-2-hydroxycyclohexyl)amino)-4-methylpyridazin-3-yl)phenol], for which the half-inhibitory concentration (IC50) at THP-1 cell NLRP3 stood at 6.1 nM. The microsomal CLint at 1 μM was found to be 3.8 µL/min/mg in data set [2] and 10 µL/min/mg in data set [3]. The half-life at 1 μM in data set [2] is 365 min; in data set [3] it was 139 min.
With `[2H]C([2H])([2H])N1CCC[C@@H](Nc2nnc(-c3ccc(C#C)cc3O)c(C)n2)C1` [Compound 86, (R)-5-ethynyl-2-(5-methyl-3-((1-(methyl-d3)piperidin-3-yl)amino)-1,2,4-triazin-6-yl)phenol], at THP-1 cell NLRP3, the IC50 was found to be 0.3 nM. The results for the microsomal CLint at 1 μM in data set [2] and in data set [3] were 6.6 µL/min/mg and 7.8 µL/min/mg, respectively. Further, the half-life at 1 μM amounted to 210 min in data set [2] and 178 min in data set [3].
For `[2H]C([2H])([2H])N1CCC[C@@H](Nc2nnc(-c3ccc(C#C)cc3O)n(C)c2=O)C1` [Compound 88, (R)-3-(4-ethynyl-2-hydroxyphenyl)-4-methyl-6-((1-(methyl-d3)piperidin-3-yl)amino)-1,2,4-triazin-5(4H)-one], on THP-1 cell NLRP3, the IC50 worked out at 1.2 nM. Moreover, the values for the microsomal CLint at 1 μM in data set [2] and in data set [3] were 1.6 µL/min/mg and 2 µL/min/mg, respectively. Moreover, the half-life at 1 μM in data set [2] was determined as 866 min; in data set [3], 693 min.
As to `C#Cc1ccc(-c2nnc(N[C@@H]3CCCN(CC)C3)cc2C)c(O)c1` [Compound 89, (R)-2-(6-((1-ethylpiperidin-3-yl)amino)-4-methylpyridazin-3-yl)-5-ethynylphenol], the half-maximal inhibitory concentration (IC50) at THP-1 cell NLRP3 was found to be 0.2 nM. In addition, the intrinsic metabolic clearance (microsomal CLint) at 1 μM in data set [2] came to 6.2 µL/min/mg; in data set [3] it was 8 µL/min/mg. In addition, the values for the half-life at 1 μM in data set [2] and in data set [3] were 224 min and 173 min, respectively.
On to `C#Cc1ccc(-c2nnc(N[C@@H]3CCCN(CC)C3)cc2C2CC2)c(O)c1` [Compound 90, (R)-2-(4-cyclopropyl-6-((1-ethylpiperidin-3-yl)amino)pyridazin-3-yl)-5-ethynylphenol], for which the IC50 at THP-1 cell NLRP3 turned out to be 0.4 nM. Also, in data set [1] (setting [4]), the AUC(0-t) was determined as 4020 ng·h/mL. Besides, in data set [1] (iv 5 mg/kg), the clearance was 20.7 mL/min/kg and the Vd came out at 6.23 L/kg. Moreover, the half-life in data set [1] (setting [5]) is 194 min. Besides, the bioavailability in data set [1] was 94.5%. In data set [1] (po 10 mg/kg), the Tmax was found to be 2 h and the Cmax was 900 ng/mL. For the same molecule, the AUC(0-t) in data set [1] (setting [6]) was found to be 7580 ng·h/mL. Besides, in data set [1] (setting [7]), the half-life was 200 min.
As for `C#Cc1ccc(-c2nnc(N[C@@H]3CCCN(CC)C3)c(=O)n2C)c(O)c1` [Compound 93, (R)-6-((1-ethylpiperidin-3-yl)amino)-3-(4-ethynyl-2-hydroxyphenyl)-4-methyl-1,2,4-triazin-5(4H)-one], at THP-1 cell NLRP3, the IC50 amounted to 1.4 nM. Moreover, in data set [2], the microsomal CLint at 1 μM stood at 5 µL/min/mg and the half-life at 1 μM worked out at 277 min. Besides, in data set [3], the intrinsic metabolic clearance (microsomal CLint) at 1 μM turned out to be 5.6 µL/min/mg and the half-life at 1 μM is 248 min.
The corresponding values for `C#Cc1ccc(-c2nnc(N[C@@H]3CCCN(CCO)C3)nc2C)c(O)c1` [Compound 99, (R)-5-ethynyl-2-(3-((1-(2-hydroxyethyl)piperidin-3-yl)amino)-5-methyl-1,2,4-triazin-6-yl)phenol] are 0.7 nM, 6.6 µL/min/mg, 210 min, 3.2 µL/min/mg and 433 min.
